# Experimental data reported in patent publication US7205298B2, “Substituted triazine kinase inhibitors” (Janssen Pharmaceutica N.V., priority 2002, dated 2007).
# Assays:
# PKC γ = molecular target: T1, PKC γ (Homo sapiens, UniProt P05129); assay: Kinase selectivity assay PKC γ; assay type: biochemical
# T1 construct: purchased BIOMOL SE-143; host or cells: insect cells
# Description: (§1) Assays to test compound inhibition of other kinases were preformed using methods that measure the amount of phosphorylation of a biotinylated peptide substrate. Biotinylated peptide substrates were selected from the literature as appropriate for the enzyme being evaluated. The general procedure used to assay for kinase activity is as follows: a kinase reaction mix was prepared in 50 mM Tris-HCl pH=8, 10 mM MgCl2, 0.1 mM Na3VO4, 1 mM DTT, 10 μM ATP, 0.25–1 μM biotinylated peptide substrate, 0.2–0.8 μCuries per well ^33P-γ-ATP (2000–3000 Ci/mmol). Assay conditions vary slightly for each protein kinase, for example, insulin receptor kinase requires 10 mM MnCl2 for activity and Calmodulin-dependent protein kinase requires calmodulin and 2 mM CaCl2. The reaction mixture was dispensed into the wells of a streptavidin coated Flashplate and 1 μL test compound in 100% DMSO was added to a 100 μL reaction volume resulting in a final concentration of 1% DMSO in the reaction. Enzyme was diluted in 50 mM Tris-HCl pH=8.0, 0.1% BSA and added to each well. The reaction was incubated for one hour at 30° C. in the presence of a test compound. […] The plate was read on a scintillation counter to determine ^33P-γ-ATP incorporated into the immobilized peptide substrate. […] A maximum and minimum signal for the assay was determined on each plate. […]
# PKC β-2 = molecular target: T2, PKC β-2 (Homo sapiens, UniProt P05771); assay: Kinase selectivity assay PKC β-2; assay type: biochemical
# T2 construct: purchased BIOMOL SE-143; host or cells: insect cells
# Description: as §1
# A375 melanoma xenograft = assay: In vivo inhibition of tumor growth, tumor growth delay method; details: for MDS to 2.0 g ± SEM (n): A375; for animals survived at day 57: group of six mice; for survival increase: vs control groups
# Description: The in vivo effect of a compound on the growth of human tumor cells can be evaluated by implanting human tumor cells originating from a variety of different tumor types (such as A375 human melanoma cells) into the hindflank of athymic mice and administering a test compound to the mice.
# Female nude mice were implanted subcutaneously with 1 mm^3 A375 melanoma fragments in the flank. Tumors were monitored twice weekly and then daily as the neoplasms reached the desired size range (about 75 mg). […] Estimated tumor weight was calculated using the formula (where w=width and l=length in mm of an A375 melanoma tumor): […]
# All treatments were initiated on Day 1 and the study was terminated on Day 57.
# The tumor growth delay (TGD) method was used in this study. In the TGD method, each animal was euthanized when its A375 neoplasm reached a size of 2.0 g. Mean Day of Survival (MDS) values were calculated for all groups. The treatment-effected mean “increase in survival” of various groups were compared to each other and to the mean survival times of mice receiving vehicle. The MDS values calculated for each group, based on the calculated day of death of each mouse, is given by the formula:
# Time to exceed endpoint (observed)=number of days it takes for each tumor to grow past the endpoint (cut-off) size. Once the tumor reaches the cut-off size, the animal is euthanized. • D2=day animal is euthanized. • D1=last day of caliper measurement before tumor reaches the endpoint. • Wt2=tumor weight (mg) on D2 • Wt1=tumor weight (mg) on D1 • Endpoint weight=predetermined “cut-off” tumor size for the model being used.
# Animals were weighed twice weekly during the study. Mice were examined frequently for clinical signs of any adverse, drug-related side effects. Acceptable toxicity for cancer drugs in mice is defined by the NCI as no mean group weight loss of over 20% during the test, and not more than one toxic death among ten treated animals.
# T2 sequence (P05771 1-673 isoform P05771-2): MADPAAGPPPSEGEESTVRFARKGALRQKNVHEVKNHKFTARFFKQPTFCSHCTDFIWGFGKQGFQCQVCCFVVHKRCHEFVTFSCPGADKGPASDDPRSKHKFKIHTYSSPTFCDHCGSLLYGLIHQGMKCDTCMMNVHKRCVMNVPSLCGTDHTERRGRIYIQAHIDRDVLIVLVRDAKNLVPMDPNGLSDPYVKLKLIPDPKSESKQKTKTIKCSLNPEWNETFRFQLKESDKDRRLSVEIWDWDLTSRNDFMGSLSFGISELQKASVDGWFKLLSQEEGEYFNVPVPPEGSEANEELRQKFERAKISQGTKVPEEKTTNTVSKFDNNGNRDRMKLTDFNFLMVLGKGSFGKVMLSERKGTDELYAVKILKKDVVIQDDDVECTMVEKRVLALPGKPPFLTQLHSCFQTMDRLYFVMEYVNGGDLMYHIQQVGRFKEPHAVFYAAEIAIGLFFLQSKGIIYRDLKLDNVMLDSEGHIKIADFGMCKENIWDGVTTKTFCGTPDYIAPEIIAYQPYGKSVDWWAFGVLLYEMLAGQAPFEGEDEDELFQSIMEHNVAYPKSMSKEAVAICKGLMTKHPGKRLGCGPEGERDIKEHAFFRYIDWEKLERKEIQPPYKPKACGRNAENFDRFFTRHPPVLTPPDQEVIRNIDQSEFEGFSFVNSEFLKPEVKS
structure (smiles),measurement,setting,value
"OCCCNc1cncc(-c2ncnc(Nc3cccc(Cl)c3)n2)c1 [Compound 1, 3-((5-(4-((3-chlorophenyl)amino)-1,3,5-triazin-2-yl)-3-pyridinyl)amino)-1-propanol]",IC50,PKC γ,> 100 µM
same,IC50,PKC β-2,> 100 µM
"OCCCNc1cc(-c2ncnc(Nc3cccc(Cl)c3)n2)ccn1 [Compound 2, 3-((4-(4-((3-chlorophenyl)amino)-1,3,5-triazin-2-yl)-2-pyridinyl)amino)-1-propanol]",surviving longer than the PEG vehicle control and Growth Control groups,A375 melanoma xenograft; 100 mg/kg,about 8 days
same,Max % BW loss (day),A375 melanoma xenograft; 100 mg/kg i.p. qd×32,−17.2% (33)
same,MDS to 2.0 g ± SEM (n),"A375 melanoma xenograft; 100 mg/kg i.p. qd×32, female nude mice",29.6 days
same,MDS to 2.0 g ± SEM (n),"A375 melanoma xenograft; 100 mg/kg i.p. qd×32, female nude mice, listed as Cpd 2",29.6 ± 3.1 (6) days
same,animals survived at day 57,A375 melanoma xenograft; 100 mg/kg,None
same,survival increase,A375 melanoma xenograft; 100 mg/kg,about 37%
same,surviving longer than the PEG vehicle control and Growth Control groups,A375 melanoma xenograft; 125 mg/kg,about 14 days
same,Max % BW loss (day),A375 melanoma xenograft; 125 mg/kg i.p. qd×32,−18.8% (29)
same,MDS to 2.0 g ± SEM (n),"A375 melanoma xenograft; 125 mg/kg i.p. qd×32, female nude mice",35.2 days
same,MDS to 2.0 g ± SEM (n),"A375 melanoma xenograft; 125 mg/kg i.p. qd×32, female nude mice, listed as Cpd 2",35.2 ± 3.6 (5) days
same,animals survived at day 57,A375 melanoma xenograft; 125 mg/kg,One out of six
same,survival increase,A375 melanoma xenograft; 125 mg/kg,about 63%
same,surviving longer than the PEG vehicle control and Growth Control groups,A375 melanoma xenograft; 150 mg/kg,about 12 days
same,Max % BW loss (day),A375 melanoma xenograft; 150 mg/kg i.p. qd×32,−17.6% (33)
same,MDS to 2.0 g ± SEM (n),"A375 melanoma xenograft; 150 mg/kg i.p. qd×32, female nude mice",33.6 days
same,MDS to 2.0 g ± SEM (n),"A375 melanoma xenograft; 150 mg/kg i.p. qd×32, female nude mice, listed as Cpd 2",33.6 ± 3.0 (4) days
same,animals survived at day 57,A375 melanoma xenograft; 150 mg/kg,One out of six
same,survival increase,A375 melanoma xenograft; 150 mg/kg,about 55%
same,NCI definition for acceptable toxicity of a cancer drug in mice,"A375 melanoma xenograft; 150 and 125 mg/kg dose groups, no mean group weight loss over 20%, not more than one toxic death among ten",satisfied the NCI definition for acceptable toxicity
same,efficacy against the A375 melanoma xenograft,A375 melanoma xenograft; high doses of 150 and 125 mg/kg compared,approximately equivalent efficacy
